Experimental data: US8637670B2, “Imidazo [4,5-C]quinoline derivatives and their use in the treatment of tumors and/or inflammation” (Piramal Enterprises Limited, priority 2009, dated 2014)

Key:
AsPC 1 = assay: Cytotoxicity, propidium iodide assay, AsPC 1; assay type: cell-based; conditions: Homo sapiens, ASPC1; Pancreatic, AsPC 1, 48 hours treatment; read-out: IC50, C5b (AsPC 1)
Experimental: (§1) The assay was designed as in the reference, Anticancer Drugs, 2002, 13, 1-8, the disclosure of which is incorporated by reference for the teaching of the assay.
(§2) Cells from cell lines as mentioned in the table given below were seeded at a density of 3000 cells/well in a white opaque 96-well plate. Following incubation at 37° C./5% CO2 for a period of 18-24 hours, the cells were treated with various concentrations (stock solution was prepared in DMSO and subsequent dilutions were made in media as per ATCC guidelines) of the compounds of Example 1-40 was for a period of 48 hours. At the end of treatment, the spent culture medium was discarded, the cells were washed with 1×PBS and 200 μl of 7 μg/ml propidium iodide was added to each well. The plates were frozen at −70° C. for at least 24 hours. For analysis, the plates were brought to RT, allowed to thaw and were read in PoleStar fluorimeter with the fluorescence setting. The percentage of viable cells in the non-treated set of wells was considered to be 100 and the percentage viability following treatment was calculated accordingly. IC50 values were calculated from graphs plotted using these percentages. Table 4 depicts the IC50 values of compounds of Example 1-40 in individual cell lines.
(§3) The abbreviations for the Cell Lines as used in Table 4 are: […]

PI3K α = assay: PI3K activity assay, cell-based ELISA of AKT (Ser 473) phosphorylation; conditions: Homo sapiens, Ovarian cell line A2780, 20% FCS stimulation
Experimental: The assay was designed as in the reference, Biochemical Journal, 2000, 350, 717-722, the disclosure of which is incorporated by reference for the teaching of the assay.
Seed cells (Ovarian cell line A2780, ATCC) were plated in a 96 well microtitre plate at a density of 50,000 cells/cm^2 in appropriate complete cell culture medium. The cells were allowed to adhere for 18-24 hours. The cells were allowed to starve for 24 hours. The cells were pretreated (in triplicates) with the compounds of Example 1-40 (stock solution was prepared in DMSO and subsequent dilutions were made in kinase buffer) at a concentration of 10 μM for one hour. Then the cells were stimulated with 20% FCS for 30 minutes. A typical assay would consist of a set of unstimulated cells, a set of stimulated cells and a set of cells treated with compounds of Example 1-40 and a set of cells treated with the stimulator. The medium was discarded. The cells were fixed with 100 μL of 3.7% formaldehyde for 15 minutes. The formaldehyde was discarded by inverting the plate and tapping it on a thick tissue paper layer to remove traces. The cells were washed and permeabilized with 200 μL PBS+Triton-X 100 solution (hereafter referred to as PBS-Triton, containing 0.1% triton-X 100 in 1×PBS) three times, incubating the cells each time for 5 minutes. 100 μL blocking solution (10% FCS in PBS-Triton) was added and incubated for 1 hour at 25° C. The blocking solution was discarded and cells were incubated with the primary antibody in PBS-Triton at a dilution of 1:500 for 1 hour at RT (25° C.). [The primary antibody is Phospho-AKT (Ser 473); Cell Signaling; USA, Cat. No. 9271]. The primary antibody solution was discarded and the cells were washed 3 times with PBS-Triton solution and incubated with the HRP-conjugated secondary antibody in PBS-Triton at a dilution of 1:500 for 1 hour at RT (25° C.). The cells were washed 3 times with PBS-Triton followed by two washes with PBS (to remove traces of triton-X 100). The OPD (o-phenylene diamine dihydrochloride) substrate was prepared for detection of the signal by dissolving one tablet set (two tablets) of SigmaFast OPD (Sigma, USA, Cat No. P9187) in 20 mL distilled water. It should be kept protected from light. 100 μL OPD solutions was added to the wells and the plate was incubated in the dark for 3-5 minutes (depending upon the development of the color). The reaction was stopped by adding 50 μL 2 NH2SO4. The absorbance was measured at 490 nm. The values were expressed in the treated samples, in terms of percentage or fold decrease in AKT phosphorylation with respect to the induced sample. PI-103 (Calbiochem, USA) was used as a standard.

H460 = assay: Cytotoxicity, propidium iodide assay, H460; assay type: cell-based; conditions: Homo sapiens, NCI-H460; Lung, H460, 48 hours treatment; read-out: IC50, C1b (H460)
Experimental: as §1, §2, §3

A2780 = assay: Cytotoxicity, propidium iodide assay, A2780; assay type: cell-based; conditions: Homo sapiens; Ovarian, A2780, 48 hours treatment; read-out: IC50, C3a (A2780)
Experimental: as §1, §2, §3

HCT116 = assay: Cytotoxicity, propidium iodide assay, HCT116; assay type: cell-based; conditions: Homo sapiens, HCT-116; Colon, HCT116, 48 hours treatment; read-out: IC50, C4a (HCT116)
Experimental: as §1, §2, §3

PC3 = assay: Cytotoxicity, propidium iodide assay, PC3; assay type: cell-based; conditions: Homo sapiens, PC-3; Prostate, PC3, 48 hours treatment; read-out: IC50, C2a (PC3)
Experimental: as §1, §2, §3

PI3Kα kinase = biological target: T1, PI3Kα kinase (Homo sapiens, UniProt P42336); assay: PI3Kα assay (32P incorporation into phosphatidylinositol, TLC densitometry); assay type: biochemical; conditions: At 100 nM
T1 construct: purchased Millipore, USA
T1 sequence (P42336 whole entry): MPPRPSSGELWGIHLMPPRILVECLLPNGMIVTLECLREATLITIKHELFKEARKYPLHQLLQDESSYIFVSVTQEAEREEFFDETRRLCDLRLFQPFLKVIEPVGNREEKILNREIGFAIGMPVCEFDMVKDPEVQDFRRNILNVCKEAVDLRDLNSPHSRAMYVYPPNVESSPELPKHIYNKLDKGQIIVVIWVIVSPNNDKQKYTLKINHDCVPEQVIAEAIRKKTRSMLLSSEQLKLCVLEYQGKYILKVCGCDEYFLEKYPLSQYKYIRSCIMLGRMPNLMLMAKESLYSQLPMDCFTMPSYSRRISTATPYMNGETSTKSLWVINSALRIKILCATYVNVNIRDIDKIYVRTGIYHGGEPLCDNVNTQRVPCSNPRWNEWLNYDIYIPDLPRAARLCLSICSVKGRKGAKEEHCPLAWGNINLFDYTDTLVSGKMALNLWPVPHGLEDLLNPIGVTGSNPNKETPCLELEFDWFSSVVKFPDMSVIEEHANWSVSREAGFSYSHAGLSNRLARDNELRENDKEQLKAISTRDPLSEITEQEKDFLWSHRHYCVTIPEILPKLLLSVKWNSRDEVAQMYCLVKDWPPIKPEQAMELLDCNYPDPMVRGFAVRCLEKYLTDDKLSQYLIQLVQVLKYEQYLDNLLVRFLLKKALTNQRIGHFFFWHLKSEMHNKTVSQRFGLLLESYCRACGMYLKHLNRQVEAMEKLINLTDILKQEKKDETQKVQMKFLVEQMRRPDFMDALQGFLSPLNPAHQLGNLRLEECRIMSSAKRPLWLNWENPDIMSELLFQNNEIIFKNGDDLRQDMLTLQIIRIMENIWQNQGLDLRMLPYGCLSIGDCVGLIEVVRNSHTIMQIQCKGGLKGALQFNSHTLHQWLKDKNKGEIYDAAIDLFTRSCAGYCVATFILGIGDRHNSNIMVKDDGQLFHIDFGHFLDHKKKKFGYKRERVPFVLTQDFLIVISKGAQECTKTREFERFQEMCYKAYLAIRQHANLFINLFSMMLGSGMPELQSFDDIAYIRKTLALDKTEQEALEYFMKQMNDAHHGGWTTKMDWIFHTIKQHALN
T1 sequence (P27986 whole entry partner): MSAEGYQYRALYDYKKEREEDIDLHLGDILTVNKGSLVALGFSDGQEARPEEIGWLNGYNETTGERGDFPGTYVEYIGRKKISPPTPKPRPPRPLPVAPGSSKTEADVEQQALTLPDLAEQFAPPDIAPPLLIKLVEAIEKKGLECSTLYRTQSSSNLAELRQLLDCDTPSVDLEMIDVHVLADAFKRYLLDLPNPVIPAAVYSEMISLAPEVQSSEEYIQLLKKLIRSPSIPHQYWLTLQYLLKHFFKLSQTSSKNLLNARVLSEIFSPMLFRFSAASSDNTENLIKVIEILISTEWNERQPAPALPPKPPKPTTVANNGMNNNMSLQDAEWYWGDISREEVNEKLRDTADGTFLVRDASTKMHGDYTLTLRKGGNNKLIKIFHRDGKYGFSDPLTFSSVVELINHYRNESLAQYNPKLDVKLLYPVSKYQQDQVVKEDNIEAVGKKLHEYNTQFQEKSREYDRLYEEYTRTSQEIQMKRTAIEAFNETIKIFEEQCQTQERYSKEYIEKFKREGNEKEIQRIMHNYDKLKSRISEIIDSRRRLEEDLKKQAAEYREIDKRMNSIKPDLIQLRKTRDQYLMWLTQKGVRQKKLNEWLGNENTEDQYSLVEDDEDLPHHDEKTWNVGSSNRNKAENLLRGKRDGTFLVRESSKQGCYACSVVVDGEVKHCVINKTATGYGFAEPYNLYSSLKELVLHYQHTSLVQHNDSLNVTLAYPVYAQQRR
Experimental: The assay was designed as in the reference, Cell, 2006, 125, 733-47 (Supplemental Data), the disclosure of which is incorporated by reference for the teaching of the assay.
The kinase reaction was carried out in a 25 μL volume in a 1.5 mL microcentrifuge tube. The reaction mixture consisted of kinase buffer (10 mM Hepes, pH 7.5, 50 mM MgCl2), 20 ng PI3Kα kinase (Millipore, USA), 12.5 μg phosphatidylinositol (PI), 10 μM ATP and 1 μCi ^32γ P dATP. Compounds of Example 1-40 were added at concentrations (stock solution was prepared in DMSO and subsequent dilutions were made in kinase buffer) as mentioned in the table. The reaction mixture was incubated at 30° C. for 20 minutes and was terminated by adding 1:1 mixture of MeOH and chloroform. The tube contents were mixed on a vortex mixer and centrifuged at 10000 rpm for 2 minutes. 10 μL of the organic (lower) phase was spotted on to a TLC plate (silica, mobile phase: n-propanol and 2 M glacial acetic acid in 65:35 ratio). The plates were dried and exposed to an X-ray film. The bands appearing as a result of ^32γ P incorporation in PI were quantitated using the QuantityOne (BioRad, USA) densitometry program. PI-103 (Calbiochem, USA) was used as a standard.

IL-6 = assay: Human monocyte assay, LPS-stimulated IL-6 (ELISA); assay type: cell-based; conditions: human monocytes, 1 μg/ml LPS, 5 hours
Experimental: (§4) The assay was designed as in the reference, Physiol. Res., 2003, 52, 593-598, the disclosure of which is incorporated by reference for the teaching of the assay.
(§5) Peripheral blood mononuclear cells (hPBMC) were harvested from human blood and suspended in RPMI 1640 culture medium containing 10% FCS, 100 U/mL penicillin and […] streptomycin (assay medium). Monocytes in the hPBMCs were counted using a Coulter Counter following which the cells were resuspended at 2×10^5 monocytes/mL. A cell suspension containing 2×10^4 monocytes was aliquoted per well of a 96-well plate. Subsequently, the hPBMCs were incubated for 4-5 hours at 37° C. under 5% CO2 (During the incubation, the monocytes adhered to the bottom of 96-well plastic culture plate). Following the incubation, the non-adherent lymphocytes were washed with assay medium and the adherent monocytes re-fed with assay medium. After a 48-hour incubation period (37° C., 5% CO2), monocytes were pretreated with various concentrations of compounds of Example 1-40 (prepared in DMSO) or vehicle (0.5% DMSO) for 30 minutes and stimulated with 1 μg/ml LPS (Escherchia coli 0111:B4, Sigma Chemical Co., St. Louis, Mo.). The incubation was continued for 5 hours at 37° C., 5% CO2. Supernatants were harvested, assayed for IL-6 and TNF-α by ELISA as described by the manufacturer (BD Biosciences, USA). Dexamethasone (10 μM) was used as standard for this assay. The 50% inhibitory concentration (IC50) values were calculated by a nonlinear regression method. In all experiments, a parallel plate was run to ascertain the toxicity of compounds of Example 1-40. The toxicity was determined using the MTS assay as described in Am. J. Physiol. Cell Physiol., 2003, 285, C813-C822.

A549 = assay: Cytotoxicity, propidium iodide assay, A549; assay type: cell-based; conditions: Homo sapiens; Lung, A549, 48 hours treatment; read-out: IC50, C1a (A549)
Experimental: as §1, §2, §3

BxPC3 = assay: Cytotoxicity, propidium iodide assay, BxPC3; assay type: cell-based; conditions: Homo sapiens, BXPC-3; Pancreatic, BxPC3, 48 hours treatment; read-out: IC50, C5c (BxPC3)
Experimental: as §1, §2, §3

U 373 = assay: Cytotoxicity, propidium iodide assay, U 373; assay type: cell-based; conditions: Homo sapiens, U373 MG; Glioblastoma, U 373, 48 hours treatment; read-out: IC50, C7a (U 373)
Experimental: as §1, §2, §3

TNF-α = assay: Human monocyte assay, LPS-stimulated TNF-α (ELISA); assay type: cell-based; conditions: human monocytes, 1 μg/ml LPS, 5 hours, read-out: TNFα (IC50)
Experimental: as §4, §5

OVCAR 3 = assay: Cytotoxicity, propidium iodide assay, OVCAR 3; assay type: cell-based; conditions: Homo sapiens; Ovarian, OVCAR 3, 48 hours treatment; read-out: IC50, C3b (OVCAR 3)
Experimental: as §1, §2, §3

U 87 MG = assay: Cytotoxicity, propidium iodide assay, U 87 MG; assay type: cell-based; conditions: Homo sapiens, Glioblastoma, 48 hours treatment, read-out: IC50, C7b (U 87 MG)
Experimental: as §1, §2, §3

Structure (SMILES): CC(C)(C#N)c1ccc(-n2c(=O)n(S(=O)(=O)c3ccc(F)cc3F)c3cnc4ccc(Br)cc4c32)cc1 [Example 17, 2-(4-(8-Bromo-3-(2,4-difluorophenylsulfonyl)-2-oxo-2,3-dihydro-1H-imidazo[4,5-c]quinolin-1-yl)phenyl)-2-methylpropanenitrile]
- IC50 (AsPC 1): 1000 to 3000 nM
- inhibition at 10 µM (PI3K α): > 50%
- IC50 (H460): 1000 to 3000 nM
- IC50 (A2780): ≤ 1000 nM
- IC50 (HCT116): 1000 to 3000 nM
- IC50 (PC3): 1000 to 3000 nM
- inhibition at 0.1 µM (PI3Kα kinase): 10 to 50%
- IC50 (IL-6): 1000 to 10000 nM
- IC50 (A549): 1000 to 3000 nM
- IC50 (BxPC3): 1000 to 3000 nM

Structure (SMILES): CC(C)(C#N)c1ccc(-n2c(=O)n(S(C)(=O)=O)c3cnc4ccc(Br)cc4c32)cc1 [Example 18, 2-(4-(8-Bromo-3-(methylsulfonyl)-2-oxo-2,3-dihydro-1H-imidazo[4,5-c]quinolin-1-yl)phenyl)-2-methylpropanenitrile]
- IC50 (AsPC 1): 1000 to 3000 nM
- IC50 (H460): ≤ 1000 nM
- IC50 (A2780): ≤ 1000 nM
- IC50 (HCT116): 1000 to 3000 nM
- IC50 (PC3): 1000 to 3000 nM
- inhibition at 0.1 µM (PI3Kα kinase): 10 to 50%
- IC50 (IL-6): 1000 to 10000 nM
- IC50 (A549): 1000 to 3000 nM
- IC50 (BxPC3): 1000 to 3000 nM

Structure (SMILES): CC(C)(C#N)c1ccc(-n2c(=O)n(C(=O)Nc3ccccc3Br)c3cnc4ccc(Br)cc4c32)cc1 [Example 33, 8-Bromo-N-(2-bromophenyl)-1-(4-(2-cyanopropan-2-yl)phenyl)-2-oxo-1H-imidazo[4,5-c]quinoline-3(2H)-carboxamide]
- IC50 (U 373): > 3000 nM
- IC50 (TNF-α): ≤ 1000 nM
- IC50 (H460): 1000 to 3000 nM
- IC50 (HCT116): > 3000 nM
- IC50 (PC3): > 3000 nM
- IC50 (OVCAR 3): > 3000 nM
- inhibition at 0.1 µM (PI3Kα kinase): > 50%
- IC50 (IL-6): > 30000 nM
- IC50 (A549): 1000 to 3000 nM
- IC50 (U 87 MG): > 3000 nM

Structure (SMILES): CC(C)(C#N)c1ccc(-n2c(=O)n(S(=O)(=O)c3ccccc3C#N)c3cnc4ccc(Br)cc4c32)cc1 [Example 2, 2-(8-Bromo-1-(4-(2-cyanopropan-2-yl)phenyl)-2-oxo-1H-imidazo[4,5-c]quinolin-3 (2H)-ylsulfonyl)benzonitrile]
- IC50 (U 373): > 3000 nM
- IC50 (TNF-α): ≤ 1000 nM
- inhibition at 10 µM (PI3K α): 10 to 50%
- IC50 (H460): ≤ 1000 nM
- IC50 (A2780): ≤ 1000 nM
- IC50 (PC3): ≤ 1000 nM
- IC50 (OVCAR 3): 1000 to 3000 nM
- inhibition at 0.1 µM (PI3Kα kinase): 10 to 50%
- IC50 (IL-6): 1000 to 10000 nM

Structure (SMILES): Cc1cccc(S(=O)(=O)n2c(=O)n(-c3ccc(C(C)(C)C#N)cc3)c3c4cc(Cl)ccc4ncc32)c1 [Example 19, 2-(4-(8-Chloro-2-oxo-3-(m-tolylsulfonyl)-2,3-dihydro-1H-imidazo[4,5-c]quinolin-1-yl)phenyl)-2-methylpropanenitrile]
- IC50 (H460): 1000 to 3000 nM
- IC50 (HCT116): > 3000 nM
- IC50 (PC3): 1000 to 3000 nM
- IC50 (OVCAR 3): > 3000 nM
- IC50 (A549): ≤ 1000 nM
- IC50 (BxPC3): > 3000 nM

Structure (SMILES): Cc1cc(C)cc(S(=O)(=O)n2c(=O)n(-c3ccc(C(C)(C)C#N)cc3)c3c4cc(Br)ccc4ncc32)c1 [Example 6, 2-(4-(8-Bromo-3-(3,5-dimethylphenylsulfonyl)-2-oxo-2,3-dihydro-1H-imidazo[4,5-c]quinolin-1-yl)phenyl)-2-methylpropanenitrile]
- IC50 (U 373): > 3000 nM
- inhibition at 10 µM (PI3K α): 10 to 50%
- IC50 (H460): > 3000 nM
- IC50 (HCT116): > 3000 nM
- IC50 (PC3): 1000 to 3000 nM
- IC50 (OVCAR 3): > 3000 nM
- inhibition at 0.1 µM (PI3Kα kinase): > 50%
- IC50 (IL-6): > 30000 nM
- IC50 (A549): > 3000 nM
- IC50 (U 87 MG): > 3000 nM
